The results in this text go back to ChEMBL document CHEMBL5523729, “Development of Degraders of Cyclin-Dependent Kinases 4 and 6 Based on Rational Drug Design” (J Med Chem, 2024).

pIC50: −log10 of the molar value. Activity calls are given as the source filed them. The calls are words filed in the database; no cut-off is given here.

In experiment [1] the target is T1, Protein cereblon/Cyclin-dependent kinase 4 (Homo sapiens, UniProt P11802+Q96SW2). As to the kind of experiment: PROTAC activity at CDK4/CRBN in human Jurkat cells assessed as protein degradation by Western blot analysis. Type of experiment: cell-based.
Target sequence in this assay (P11802 whole entry): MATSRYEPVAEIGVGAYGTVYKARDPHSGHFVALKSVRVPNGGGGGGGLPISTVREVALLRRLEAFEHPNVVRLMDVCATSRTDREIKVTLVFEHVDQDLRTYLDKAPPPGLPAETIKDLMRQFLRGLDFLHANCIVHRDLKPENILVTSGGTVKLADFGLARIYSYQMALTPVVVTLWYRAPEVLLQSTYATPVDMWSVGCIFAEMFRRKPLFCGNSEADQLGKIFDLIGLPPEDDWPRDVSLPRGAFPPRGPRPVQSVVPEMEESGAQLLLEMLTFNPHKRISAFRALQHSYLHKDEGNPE
Target sequence in this assay (Q96SW2 whole entry): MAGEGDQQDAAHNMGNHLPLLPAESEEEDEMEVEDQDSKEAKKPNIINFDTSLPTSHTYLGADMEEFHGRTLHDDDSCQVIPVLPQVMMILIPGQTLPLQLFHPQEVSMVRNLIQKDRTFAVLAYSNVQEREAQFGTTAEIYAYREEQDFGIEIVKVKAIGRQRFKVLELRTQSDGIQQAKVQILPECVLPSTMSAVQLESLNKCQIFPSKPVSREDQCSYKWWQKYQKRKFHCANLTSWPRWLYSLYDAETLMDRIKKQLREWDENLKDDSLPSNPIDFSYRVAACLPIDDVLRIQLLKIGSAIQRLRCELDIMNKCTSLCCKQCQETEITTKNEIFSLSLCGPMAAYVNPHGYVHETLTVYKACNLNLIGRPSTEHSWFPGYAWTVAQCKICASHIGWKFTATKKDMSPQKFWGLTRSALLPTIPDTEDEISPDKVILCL
For experiment [2], the target named is T2, Protein cereblon/Cyclin-dependent kinase 6 (Homo sapiens, UniProt Q00534+Q96SW2). The experiment in a line: PROTAC activity at CDK6/CRBN in human Jurkat cells assessed as protein degradation by Western blot analysis. Type of experiment: cell-based.
Target sequence in this assay (Q00534 whole entry): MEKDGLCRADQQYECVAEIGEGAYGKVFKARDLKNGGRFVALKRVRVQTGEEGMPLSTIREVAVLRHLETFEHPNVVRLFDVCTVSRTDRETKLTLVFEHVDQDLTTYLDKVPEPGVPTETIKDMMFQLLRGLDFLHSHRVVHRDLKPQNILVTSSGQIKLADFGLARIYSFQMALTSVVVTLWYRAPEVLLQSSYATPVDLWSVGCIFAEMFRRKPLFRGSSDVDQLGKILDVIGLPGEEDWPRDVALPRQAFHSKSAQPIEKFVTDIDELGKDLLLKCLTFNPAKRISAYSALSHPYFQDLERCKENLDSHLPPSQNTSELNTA
Target sequence in this assay (Q96SW2 whole entry): as the sequence (Q96SW2 whole entry) above
Experiment [3] addresses T1, Protein cereblon/Cyclin-dependent kinase 4. As to the kind of experiment: PROTAC activity at CDK4/CRBN in human Jurkat cells assessed as maximal protein degradation by Western blot analysis relative to control. Format: cell-based. On the technique in general: Immunoblotting shows a protein as a band on a membrane.
Target sequence in this assay (P11802 2-303 limits assumed): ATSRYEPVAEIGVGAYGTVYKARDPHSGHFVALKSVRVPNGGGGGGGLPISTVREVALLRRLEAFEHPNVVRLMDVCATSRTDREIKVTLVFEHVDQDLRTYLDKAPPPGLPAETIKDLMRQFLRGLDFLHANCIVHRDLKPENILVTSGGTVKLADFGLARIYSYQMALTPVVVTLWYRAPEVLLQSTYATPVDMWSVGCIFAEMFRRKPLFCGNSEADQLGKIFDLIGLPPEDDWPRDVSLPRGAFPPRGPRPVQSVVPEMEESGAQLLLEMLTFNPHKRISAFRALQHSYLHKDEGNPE
Target sequence in this assay (Q96SW2 whole entry partner): as the sequence (Q96SW2 whole entry) above
The target of experiment [4] is T2, Protein cereblon/Cyclin-dependent kinase 6. As to the kind of experiment: PROTAC activity at CDK6/CRBN in human Jurkat cells assessed as maximal protein degradation by Western blot analysis relative to control. Format: cell-based.
Target sequence in this assay (Q00534 whole entry, looked up): as the sequence (Q00534 whole entry) above
Target sequence in this assay (Q96SW2 whole entry, looked up): as the sequence (Q96SW2 whole entry) above
Experiment [5] addresses Cyclin-dependent kinase 6 (Homo sapiens, UniProt Q00534). As to the kind of experiment: Inhibition of CDK6 (unknown origin).
For experiment [6], the system named is Jurkat. The experiment in a line: Anti-proliferative activity against human Jurkat cells assessed as cell growth inhibition measured after 72 hrs by CCK8 assay. Format: functional, cell-based. For orientation: Tetrazolium assays rely on reduction of a dye to a coloured formazan, in cell work by metabolically active cells.
Experiment [7] concerns the target Cyclin-dependent kinase 4 (Homo sapiens, UniProt P11802). As to the kind of experiment: Inhibition of CDK4 (unknown origin).
The target in experiment [8] is T1, Protein cereblon/Cyclin-dependent kinase 4. As to the kind of experiment: PROTAC activity at CDK4/CRBN in human Jurkat cells assessed as protein degradation after 3 to 24 hrs by Western blot analysis. Type of experiment: cell-based. As to conditions: dose 1-1000 nM, time 3-24 hrs.
Target sequence in this assay (P11802 2-303 limits assumed): as the sequence (P11802 2-303 limits assumed) above
Target sequence in this assay (Q96SW2 whole entry partner): as the sequence (Q96SW2 whole entry) above
Experiment [9] shares this target. As to the kind of experiment: PROTAC activity at CDK4/CRBN in human Jurkat cells assessed as protein degradation at 1 to 1000 nM by Western blot analysis. The conditions noted are these: dose 1-1000 nM, time 3-24 hrs, TDE = time-dependent effect. Type of experiment: cell-based.
Target sequence in this assay (P11802 2-303 limits assumed): as the sequence (P11802 2-303 limits assumed) above
Target sequence in this assay (Q96SW2 whole entry partner): as the sequence (Q96SW2 whole entry) above
The target in experiment [10] is T2, Protein cereblon/Cyclin-dependent kinase 6. The experiment in a line: PROTAC activity at CDK6/CRBN in human Jurkat cells assessed as protein degradation at 1 uM after 12 hrs by Western blot analysis. Type of experiment: cell-based.
Target sequence in this assay (Q00534 whole entry, looked up): as the sequence (Q00534 whole entry) above
Target sequence in this assay (Q96SW2 whole entry, looked up): as the sequence (Q96SW2 whole entry) above
For experiment [11], the target named is Protein cereblon/Cyclin-dependent kinase 5 (Homo sapiens) (UniProt Q00535+Q96SW2). The experiment in a line: PROTAC activity at CDK5/CRBN in human Jurkat cells assessed as protein degradation at 1 uM measured after 24 hrs by Western blot analysis. Format: cell-based.
Experiment [12] has as its target T1, Protein cereblon/Cyclin-dependent kinase 4. The experiment in a line: PROTAC activity at CDK4/CRBN in human Jurkat cells assessed as protein degradation at 1 uM after 12 hrs by Western blot analysis. Format: cell-based.
Target sequence in this assay (P11802 2-303 limits assumed): as the sequence (P11802 2-303 limits assumed) above
Target sequence in this assay (Q96SW2 whole entry partner): as the sequence (Q96SW2 whole entry) above
Experiment [13] deals with Protein cereblon/Cyclin-dependent kinase 2 (Homo sapiens) (UniProt P24941+Q96SW2). As to the kind of experiment: PROTAC activity at CDK2/CRBN in human Jurkat cells assessed as protein degradation at 1 uM measured after 24 hrs by Western blot analysis. Type of experiment: cell-based.
The test system of experiment [14] is Jurkat. As to the kind of experiment: Anti-tumor activity against human Jurkat cells assessed as increase in cleaved caspase-3 level by Western blot analysis. The conditions noted are these: dose 1-1000 nM. Format: functional, cell-based.
Experiment [15] addresses Protein cereblon/Cyclin-dependent kinase 7 (Homo sapiens) (UniProt P50613+Q96SW2). The experiment in a line: PROTAC activity at CDK7/CRBN in human Jurkat cells assessed as protein degradation at 1 uM measured after 24 hrs by Western blot analysis. Format: cell-based.
In experiment [16] the target is T2, Protein cereblon/Cyclin-dependent kinase 6. The experiment in a line: PROTAC activity at CDK6/CRBN in human Jurkat cells assessed as protein degradation after 3 to 24 hrs by Western blot analysis. Type of experiment: cell-based. The conditions noted are these: dose 1-1000 nM, time 3-24 hrs.
Target sequence in this assay (Q00534 whole entry, looked up): as the sequence (Q00534 whole entry) above
Target sequence in this assay (Q96SW2 whole entry, looked up): as the sequence (Q96SW2 whole entry) above
Experiment [17] deals with T1, Protein cereblon/Cyclin-dependent kinase 4. The experiment in a line: PROTAC activity at CDK4/CRBN in human Jurkat cells assessed as protein degradation at 1 uM measured after 24 hrs by Western blot analysis. Type of experiment: cell-based.
Target sequence in this assay (P11802 2-303 limits assumed): as the sequence (P11802 2-303 limits assumed) above
Target sequence in this assay (Q96SW2 whole entry partner): as the sequence (Q96SW2 whole entry) above
Experiment [18] relates to Jurkat. As to the kind of experiment: Induction of apoptosis in human Jurkat cells assessed as apoptotic cells measured after 24 hrs by Annexin V-FITC/PI staining based analysis. Format: functional, cell-based. The conditions noted are these: dose 0.1-1 µM.
Experiment [19] deals with Jurkat. The experiment in a line: Anti-tumor activity against human Jurkat cells assessed as suppression of p-RB (Ser780) at 1 uM by Western blot analysis. Format: functional, cell-based.
Experiment [20] relates to Jurkat. The experiment in a line: Cell cycle arrest in human Jurkat cells assessed as accumulation of cells at G1 phase measured after 24 hrs by flow cytometry. Format: functional, cell-based. The conditions noted are these: dose 0.1-1 µM. A general note: A flow cytometer gives signals particle by particle.
For experiment [21], the target named is T2, Protein cereblon/Cyclin-dependent kinase 6. As to the kind of experiment: PROTAC activity at CDK6/CRBN in human Jurkat cells assessed as protein degradation at 1 to 1000 nM by Western blot analysis. Type of experiment: cell-based. The conditions noted are these: dose 1-1000 nM, time 3-24 hrs, TDE = time-dependent effect.
Target sequence in this assay (Q00534 whole entry, looked up): as the sequence (Q00534 whole entry) above
Target sequence in this assay (Q96SW2 whole entry, looked up): as the sequence (Q96SW2 whole entry) above
The target of experiment [22] is Protein cereblon/Cyclin-dependent kinase 8 (Homo sapiens) (UniProt P49336+Q96SW2). As to the kind of experiment: PROTAC activity at CDK8/CRBN in human Jurkat cells assessed as protein degradation at 1 uM measured after 24 hrs by Western blot analysis. Format: cell-based.
For experiment [23], the system named is Jurkat. The experiment in a line: Anti-tumor activity against human Jurkat cells assessed as increase in cleaved PARP level by Western blot analysis. The conditions noted are these: dose 1-1000 nM. Type of experiment: functional, cell-based.
In experiment [24] the target is Protein cereblon/Cyclin-dependent kinase 1 (Homo sapiens) (UniProt P06493+Q96SW2). As to the kind of experiment: PROTAC activity at CDK1/CRBN in human Jurkat cells assessed as protein degradation at 1 uM measured after 24 hrs by Western blot analysis. Format: cell-based.

Protein cereblon/Cyclin-dependent kinase 8 (Homo sapiens), sequence (P49336 whole entry, looked up): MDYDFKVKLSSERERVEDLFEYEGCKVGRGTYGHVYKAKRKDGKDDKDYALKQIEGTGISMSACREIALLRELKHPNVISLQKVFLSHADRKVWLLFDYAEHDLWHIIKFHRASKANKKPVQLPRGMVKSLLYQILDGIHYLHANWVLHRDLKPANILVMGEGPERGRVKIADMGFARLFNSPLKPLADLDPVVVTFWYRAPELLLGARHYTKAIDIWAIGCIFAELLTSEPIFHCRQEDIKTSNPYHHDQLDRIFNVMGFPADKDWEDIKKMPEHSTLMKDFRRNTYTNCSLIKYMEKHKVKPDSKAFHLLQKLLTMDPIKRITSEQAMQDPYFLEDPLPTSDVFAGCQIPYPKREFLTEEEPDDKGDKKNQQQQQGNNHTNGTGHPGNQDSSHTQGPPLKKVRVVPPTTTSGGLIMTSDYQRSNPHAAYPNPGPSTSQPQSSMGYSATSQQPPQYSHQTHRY
Protein cereblon/Cyclin-dependent kinase 8 (Homo sapiens), sequence (Q96SW2 whole entry, looked up): as the sequence (Q96SW2 whole entry) above
Cyclin-dependent kinase 6, sequence (Q00534 whole entry): as the sequence (Q00534 whole entry) above

As a reminder, the DC50 is the concentration at which degradation of the target reaches its halfway point. As usually defined, the Emax is the greatest response seen or fitted, relative to the assay's reference. `O=C1CCC(N2C(=O)c3ccc(N4CCN(CC5CCN(C(=O)CN6CCN(c7ccc(Nc8ncc9ncc(=O)n(C%10CCCC%10)c9n8)cc7)CC6)CC5)CC4)cc3C2=O)C(=O)N1` (configuration not stated): the values for the DC50 in [1] and in experiment [2] were 0.138 µM and 0.0023 µM, respectively. In addition, the values for the Emax in [3] and in experiment [4] were 68% and 90%, respectively.
For `O=C1CCC(N2C(=O)c3cccc(NCCOCCOCCN4CCN(c5ccc(Nc6ncc7ncc(=O)n(C8CCCC8)c7n6)cc5)CC4)c3C2=O)C(=O)N1` (configuration not stated) the same measures were 0.557 µM, 0.0053 µM, 53% and 94%.
As a reminder, the pIC50 is the negative decadic logarithm of the IC50, by convention in mol/L. Take `O=c1cnc2cnc(Nc3ccc(N4CCNCC4)cc3)nc2n1C1CCCC1`: the negative logarithm of the IC50 (pIC50) in experiment [5] is 7.06; in [6], 5.83; in experiment [7], 8.11.
`CC(=O)c1c(C)c2cnc(Nc3ccc(N4CCNCC4)cn3)nc2n(C2CCCC2)c1=O` [PALBOCICLIB]: the pIC50 in [6] is 5.83.
In the case of `O=C1CCC(N2C(=O)c3cccc(NC(=O)CCCCCCN4CCN(c5ccc(Nc6ncc7ncc(=O)n(C8CCCC8)c7n6)cc5)CC4)c3C2=O)C(=O)N1` (configuration not stated), the figures for the 50% degradation concentration (DC50) in [1] and in [2] were greater than 1 µM and 0.0066 µM, respectively. In addition, the Emax in experiment [3] amounted to 41%; in experiment [4], 95%.
For `O=C1CCC(N2C(=O)c3cccc(NCCOCCN4CCN(c5ccc(Nc6ncc7ncc(=O)n(C8CCCC8)c7n6)cc5)CC4)c3C2=O)C(=O)N1` (configuration not stated) the same measures were 0.162 µM, 0.093 µM, 60% and 91%.
The like results for `O=C1CCC(N2C(=O)c3ccc(N4CCN(C(=O)CN5CCN(c6ccc(Nc7ncc8ncc(=O)n(C9CCCC9)c8n7)cc6)CC5)CC4)cc3C2=O)C(=O)N1` (configuration not stated) were, in that order, 0.0098 µM, 0.0039 µM, 75% and 86%.
For `O=C1CCC(N2C(=O)c3cccc(NC(=O)CCCCCCC(=O)N4CCN(c5ccc(Nc6ncc7ncc(=O)n(C8CCCC8)c7n6)cc5)CC4)c3C2=O)C(=O)N1` (configuration not stated), the DC50 in [1] stood at 0.434 µM; in [2] it was 0.0433 µM. The Emax in experiment [3] is 60%; in experiment [4], 92%.
With `O=C1CCC(N2C(=O)c3cccc(NC(=O)CCCCCN4CCN(c5ccc(Nc6ncc7ncc(=O)n(C8CCCC8)c7n6)cc5)CC4)c3C2=O)C(=O)N1` (configuration not stated), the DC50 came to 0.0149 µM in [1] and 0.058 µM in [2]. The Emax was 95% in [3] and 85% in experiment [4].
For `O=C1CCC(N2C(=O)c3cccc(NC(=O)CCCCCn4cc(CN5CCN(c6ccc(Nc7ncc8ncc(=O)n(C9CCCC9)c8n7)cc6)CC5)nn4)c3C2=O)C(=O)N1` (configuration not stated) the same measures were greater than 1 µM, 0.0163 µM, 42% and 95%.
With `O=C(CCCCN1CCN(c2ccc(Nc3ncc4ncc(=O)n(C5CCCC5)c4n3)cc2)CC1)NCCNc1cccc2c1C(=O)N(C1CCC(=O)NC1=O)C2=O` (configuration not stated), the values for the DC50 in [1] and in [2] were 0.0105 µM and 0.0025 µM, respectively. Moreover, the Activity entry in experiment [8] is “Dose-Dependent Effect”; in experiment [9], “Tde”; in experiment [10], 100%; in experiment [12], 100%; in [14], “Dose-Dependent Effect”; in experiment [16] it was “Dose-Dependent Effect”. The Activity result is “Dose-Dependent Effect” in experiment [18], “Dose-Dependent Effect” in experiment [20], “Tde” in [21] and “Dose-Dependent Effect” in [23]. For the same compound, the result in [11], in [13], in experiment [15], in experiment [17], in experiment [22] and in [24] was inactive. Moreover, the pIC50 in experiment [6] is 6.74. In addition, the Emax in experiment [3] stood at 100%; in experiment [4] it was 96%. Also, in experiment [19], the result was Active.
`O=C(CN1CCN(c2ccc(Nc3ncc4ncc(=O)n(C5CCCC5)c4n3)cc2)CC1)NCCCCNc1cccc2c1C(=O)N(C1CCC(=O)NC1=O)C2=O` (configuration not stated): the DC50 in experiment [1] and in experiment [2] was greater than 1 µM throughout. Also, the Emax in experiment [3] turned out to be 14%; in [4] it was 40%.
